How the values were obtained:
[1] = biological target: T1, AMPK-WT (His-tagged AMPK containing α1β1γ1 protein) (Rattus norvegicus, UniProt P54645+P80385); assay: SPR analysis of binding to purified wild-type AMPK
T1 construct: His (N); made in house
Experimental: Mammalian AMPK subunits (His-α1, β1, and γ1) were cloned into a pET-3d vector, and protein expression and purification were similar to the literature.
SPR analysis was performed with a Biacore T200 instrument (GE Healthcare). Firstly, the purred His-tagged AMPK containing α1β1γ1 protein was captured onto an activated carboxymethylated 5 (CM5) chip using amine coupling to levels ranging from 4000 RU to 6000 RU. Secondly, GENI was dissolved in PBS-P buffer solution (0.05% (v/v) Tween 20 and PBS), and the concentration of GENI was 64 μM. […] The sample was filtered by pumping through a […] membrane. A gradient concentration of GENI was injected at a flow rate of 30 μL/min in a running buffer (0.05% (v/v) Tween 20 and PBS). The data were analyzed with Biacore evaluation software (T200 version 2.0) and fitted to the 1:1 Langmuir binding model, and the kinetic parameters were derived.

[2] = system: MAPK; assay: Cellular thermal shift assay (CETSA) in PC12 cells, MAPK; type: binding; conditions: 10 μM GENI 2 h, 60 °C to 80 °C
Experimental: In a 60 mm dish containing 5 mL of DMEM, 2 × 10^6 cells were added and incubated for 24 h. In each plate, 10 μM GENI was added and incubated for 2 h. Cells were harvested and heated at a temperature ranging from 60 °C to 80 °C for PC12 cell samples. We obtained a certain amount of cerebral cortex and hippocampus samples, which were added with PBS and ground. After centrifugation, the supernatant was used as a sample, and we measured the protein concentration with a BCA kit (CoWin Biotech Co., Ltd., Taizhou, Jiangsu, China). The protein of the cerebral cortex or hippocampus was incubated with 10 μM GENI at 37 °C for 2 h and heated from 65 °C to 100 °C for the cerebral cortex sample but 43 °C to 67 °C and 65 °C to 100 °C for the hippocampus sample. Equal volumes of supernatant heated at each temperature point for the control and treatment groups were used for Western blot analysis with the antibody for specific proteins.

[3] = system: BV-2 microglia; assay: BV-2 microglial activity assay (Iba1 staining); type: cell-based, murine; conditions: GENI 1, 3, and 10 μM, LPS 1 μg/mL
Experimental: BV-2 cells (2.5 × 10^4) were seeded in 24-well plates. […] We then removed the medium, washed the cells three times with PBS, and fixed the cells with 4% paraformaldehyde (500 μL/well) for 20 min at room temperature. We washed the cells three times with PBS and added Quick Block^TM immunostaining blocking solution (500 μL/well) to block for 60 min. After removing the blocking solution, we added 200 μL of the primary antibody (Anti-Iba1 rabbit monoclonal antibody, 1:1000, abcam178847) to each well and incubated the samples overnight at 4 °C. The next day, the supernatant was discarded, washed three times with PBS, and incubated with the secondary antibody Cart anti-rabbit IgG (1:1000) at room temperature for 1 h. Nuclei were stained with DAPI (250 μL/well) for 5 min, and the fluorescence was observed under a fluorescent inverted microscope (Olympus IX53, Tokyo, Japan).

[4] = system: PC12 cells; assay: Autophagy flow assay (CYTO-ID) in PC12 cells; type: cell-based
Experimental: The experiment was carried out according to the instructions of the CYTO-ID autophagy detection kit (Enzo Biochem, New York, NY, USA). In brief, we seeded 7.5 × 10^4 PC12 cells in each well of a 24-well plate using the cell slide method. The cells were incubated for 24 h at 37 °C in a 5% CO2 incubator. The experiment was divided into control (0.5% DMSO), positive control rapamycin (Rap 500 nM + chloroquine (CQ)), GENI treated-group (10 μM GENI + 10 μM CQ), 3-MA inhibitor group (5 mM 3-MA + 10 μM CQ) and GENI + 3MA group (5 mM 3-MA + 10 μM GENI + 10 μM CQ). The optimum concentration of 3MA inhibitor was referenced in the other report. At first, 0.5 mL of serum-free DMEM (plus 1% dual anti-penicillin–streptomycin) containing 3-MA (5 mM) was used to replace the medium in two groups as well as 0.5 mL of serum-free DMEM was added in the other groups, respectively. After treating for 6 h, 0.5 mL of DMEM containing DMSO (0.5%), Rap (500 nM) + CQ (10 μM), GENI (10 μM) + CQ (10 μM), CQ (10 μM), and GENI (10 μM) + CQ (10 μM) was added into the corresponding group, respectively. After 18 h, we removed the medium and washed cells twice with 1× assay buffer containing 5% FBS. We then added CYTO-ID Green detection reagent and Hocchst 33342 nuclear stain to the cells, which were incubated at 37 °C for 45 min. After three washes with 1× assay buffer, we fixed cells with 4% paraformaldehyde for 20 min. After three washes with 1× assay buffer, we observed the cells with an upright two-photon confocal microscope (Olympus FV1000BX-51, Tokyo, Japan).

T1 sequence (P54645 13-559 limits assumed): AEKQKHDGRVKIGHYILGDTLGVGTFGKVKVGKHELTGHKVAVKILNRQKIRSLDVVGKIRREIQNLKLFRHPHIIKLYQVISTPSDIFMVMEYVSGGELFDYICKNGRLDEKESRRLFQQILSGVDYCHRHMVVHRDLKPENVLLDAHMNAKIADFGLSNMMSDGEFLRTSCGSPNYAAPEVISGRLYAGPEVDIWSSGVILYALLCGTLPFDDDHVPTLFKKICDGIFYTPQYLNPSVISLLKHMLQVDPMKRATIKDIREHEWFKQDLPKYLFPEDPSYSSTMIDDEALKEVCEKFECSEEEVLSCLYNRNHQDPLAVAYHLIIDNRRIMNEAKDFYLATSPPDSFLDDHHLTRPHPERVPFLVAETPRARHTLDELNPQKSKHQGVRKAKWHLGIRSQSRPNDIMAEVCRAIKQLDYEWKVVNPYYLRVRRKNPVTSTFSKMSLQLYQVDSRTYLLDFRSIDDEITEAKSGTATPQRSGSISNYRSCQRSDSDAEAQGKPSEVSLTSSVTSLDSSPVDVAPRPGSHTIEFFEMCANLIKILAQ
T1 sequence (P80386 whole entry partner): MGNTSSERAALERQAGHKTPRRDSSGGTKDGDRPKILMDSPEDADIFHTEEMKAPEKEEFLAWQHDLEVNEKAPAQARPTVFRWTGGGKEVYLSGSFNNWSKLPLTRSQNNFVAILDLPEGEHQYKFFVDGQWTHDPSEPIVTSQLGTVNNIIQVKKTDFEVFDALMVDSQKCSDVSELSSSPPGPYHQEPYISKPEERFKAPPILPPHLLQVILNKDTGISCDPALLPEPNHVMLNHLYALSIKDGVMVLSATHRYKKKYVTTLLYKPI
T1 sequence (P80385 whole entry): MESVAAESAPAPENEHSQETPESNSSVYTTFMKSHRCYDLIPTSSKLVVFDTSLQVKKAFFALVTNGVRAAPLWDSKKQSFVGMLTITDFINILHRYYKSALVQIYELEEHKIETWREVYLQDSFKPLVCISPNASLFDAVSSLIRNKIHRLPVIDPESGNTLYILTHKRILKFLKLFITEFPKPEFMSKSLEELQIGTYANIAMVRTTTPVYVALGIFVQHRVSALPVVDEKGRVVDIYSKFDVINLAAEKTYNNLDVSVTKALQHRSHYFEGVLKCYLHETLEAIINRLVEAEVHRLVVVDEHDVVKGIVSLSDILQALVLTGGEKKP

CC(C)CCOC(=O)C1=CO[C@@H](O[C@@H]2O[C@H](CO)[C@@H](O)[C@H](O)[C@H]2O)C2C(CO)=CCC12 (stereo partly drawn) [GENI, Geniposidic 4-isoamyl ester]
Kd ([1]; 1:1 Langmuir binding model): 1070 nM | kon ([1]; association rate, read-out: Ka): 2320 M⁻¹ s⁻¹ | thermal stability of MAPK (CETSA) [2]: not obvious | LPS-induced activation in BV-2 microglia [3]: inhibiting | fluorescence intensity of autophagosomes ([4]; 10 μM GENI + 10 μM CQ, compared with the control group): significantly increased | autophagy effect relative to positive control Rap at 500 nM ([4]; GENI at 10 μM): comparable
